The record followed here is ChEMBL document CHEMBL1147037 (J Biol Chem, 2007).

In general, Emax refers to the maximal effect, on the per cent scale that the assay sets. By EC50 is commonly meant the concentration needed to bring the measured effect to its halfway point. The Ki is the equilibrium dissociation constant of an inhibitor or competing ligand from its target. A lower Ki goes with higher affinity.

The target in assay [1] is T1, Mu-type opioid receptor (Homo sapiens, UniProt P35372). To be noted: HEK293-A, at 100 µM.
T1 sequence (P35372 whole entry): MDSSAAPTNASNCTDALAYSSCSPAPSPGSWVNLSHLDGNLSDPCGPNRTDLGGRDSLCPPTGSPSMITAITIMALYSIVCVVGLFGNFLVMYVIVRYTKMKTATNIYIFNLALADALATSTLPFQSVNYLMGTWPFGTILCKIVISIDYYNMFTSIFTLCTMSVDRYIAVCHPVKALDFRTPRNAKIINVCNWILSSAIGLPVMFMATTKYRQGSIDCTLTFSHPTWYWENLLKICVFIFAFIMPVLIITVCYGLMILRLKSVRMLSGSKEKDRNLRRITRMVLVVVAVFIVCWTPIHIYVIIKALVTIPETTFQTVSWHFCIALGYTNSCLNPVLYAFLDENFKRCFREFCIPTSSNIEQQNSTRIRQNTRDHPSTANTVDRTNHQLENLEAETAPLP
Assay [2] concerns the target T1, Mu-type opioid receptor. As to the kind of experiment: Activation of human mu opioid receptor expressed in HEK293a cells coexpressing YFP-labelled alphai1 and CFP-labelled beta-1-gamma-2 Gi subunits assessed as decrease in fluorescence resonance energy transfer signal at 10 uM relative to morphine. It is filed as cell-based. The settings on record: HEK293-A.
The target of assay [3] is T1, Mu-type opioid receptor. As to the kind of experiment: Activation of human mu opioid receptor expressed in HEK293a cells co-expressing YFP-labelled alphai1 and CFP-labelled beta1gamma2 Gi subunits assessed as Gi protein activation by fluorescence resonance energy transfer. It counts as cell-based, HEK293-A.
For assay [4], the target named is T1, Mu-type opioid receptor. Put plainly: Displacement of [3H]naloxone from human mu poioid receptor expressed in HEK293 cells. It counts as cell-based.

Consider `COc1ccc(C[C@@H]2c3cc(O)c(OC)cc3CCN2C)cc1O`, for which the Emax on Mu-type opioid receptor [1] was found to be 15.9%.

Take `CN1CC[C@]23c4c5ccc(O)c4O[C@H]2C(=O)C=C[C@H]3[C@H]1C5` [MORPHINONE]: on Mu-type opioid receptor [2], the maximal effect (Emax) was 100%. Also, the EC50 at Mu-type opioid receptor [3] was determined as 0.028 µM. This compound displayed a Ki at Mu-type opioid receptor [4] of 0.146 µM.

Regarding `COC1=CC=C2[C@H]3Cc4ccc(O)c5c4[C@@]2(CCN3C)[C@H]1O5` [ORIPAVINE], the maximal effect (Emax) on Mu-type opioid receptor [2] was 100%. For the same compound, the EC50 on Mu-type opioid receptor [3] is 0.277 µM. Besides, at Mu-type opioid receptor [4], the affinity corresponds to a Ki of 0.286 µM.

`COC1=CC=C2[C@H]3Cc4ccc(OC)c5c4[C@@]2(CCN3C)[C@H]1O5` [THEBAINE]: the maximal effect (Emax) on Mu-type opioid receptor [1] was 76.3%. Also, the concentration for a half-maximal effect (EC50) at Mu-type opioid receptor [3] was found to be 5.6 µM. This compound also returned a Ki on Mu-type opioid receptor [4] of 7.4 µM.

Turning to `COC1=C[C@]23CCN(C)[C@H](Cc4ccc(OC)c(O)c42)C3=C[C@@H]1O`, at Mu-type opioid receptor [1], the Emax came to 17.7%.

Consider `COc1ccc2c3c1O[C@H]1C(=O)C=C[C@H]4[C@@H](C2)N(C)CC[C@]314` [CODEINONE], for which the maximal effect (Emax) at Mu-type opioid receptor [2] worked out at 100%. The EC50 on Mu-type opioid receptor [3] amounted to 0.294 µM. This compound also had a Ki on Mu-type opioid receptor [4] of 0.459 µM.

Compound `COC1=C[C@]23CCN(C)[C@H](Cc4ccc(OC)c(O)c42)C3=CC1=O` [SALUTARIDINE] registered an Emax on Mu-type opioid receptor [1] of 54.4%. In addition, the EC50 on Mu-type opioid receptor [3] stood at 32.5 µM. Moreover, at Mu-type opioid receptor [4], the Ki amounted to 34.6 µM.
